Measured values published in US12077503B2, “Substituted cyclic amides and their use as herbicides” (FMC CORPORATION, priority 2015, dated 2024).

Experiments:
Type in all cases: in vivo
[1] = test system: pigweed (Amaranthus retroflexus); experiment: Test A postemergence; details: Amaranthus retroflexus, post-emergence, 240 h, read-out: Plant response rating, Pigweed; for pest or weed control at 125 g/ha: 125 g ai/ha, postemergence, visual injury after approximately 10 d, 0 to 100 scale (0 no effect, 100 complete control)
Outline: (§1)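 Seeded soil received test chemicals as a preemergence directed spray, and seedlings at one to two leaves, 2–10 cm tall, received them postemergence, in a non-phytotoxic, surfactant-containing solvent mixture. Pots were held in a greenhouse for approximately 10 d, then rated for injury from 0, no effect, to 100, complete control.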

[2] = test system: giant foxtail (Setaria faberii); experiment: Test A postemergence; details: Setaria faberi, post-emergence, 240 h, read-out: Plant response rating, Foxtail, Giant; for pest or weed control at 125 g/ha: 125 g ai/ha, postemergence, visual injury after approximately 10 d, 0 to 100 scale (0 no effect, 100 complete control)
Outline: as §1

Kochia (Kochia scoparia) [3] = experiment: Test A postemergence; details: Bassia scoparia, post-emergence, 240 h, read-out: Plant response rating, Kochia; for pest or weed control at 125 g/ha: 125 g ai/ha, postemergence, visual injury after approximately 10 d, 0 to 100 scale (0 no effect, 100 complete control)
Outline: as §1

corn (Zea mays) = experiment: Test A postemergence; details: Zea mays, post-emergence, 240 h; for Corn plant response rating (crop injury, 0 = no effect, 100 = complete kill) at 125 g/ha: 125 g ai/ha, postemergence, visual injury after approximately 10 d, 0 to 100 scale (0 no effect, 100 complete control)
Outline: as §1

[4] = test system: ryegrass, Italian (Italian ryegrass, Lolium multiflorum); experiment: Test A postemergence; details: Lolium multiflorum, post-emergence, 240 h, read-out: Plant response rating, Ryegrass, Italian; for pest or weed control at 125 g/ha: 125 g ai/ha, postemergence, visual injury after approximately 10 d, 0 to 100 scale (0 no effect, 100 complete control)
Outline: as §1

[5] = test system: ragweed (common ragweed, Ambrosia elatior); experiment: Test A postemergence; details: Ambrosia artemisiifolia, post-emergence, 240 h, read-out: Plant response rating, Ragweed; for pest or weed control at 125 g/ha: 125 g ai/ha, postemergence, visual injury after approximately 10 d, 0 to 100 scale (0 no effect, 100 complete control)
Outline: as §1

[6] = test system: wheat (Triticum aestivum); experiment: Test A postemergence; details: Triticum aestivum, post-emergence, 240 h, read-out: Plant response rating, Wheat
Outline: as §1

[7] = test system: barnyardgrass (Echinochloa crus-galli); experiment: Test A postemergence; details: Echinochloa crus-galli, post-emergence, 240 h, read-out: Plant response rating, Barnyardgrass; for pest or weed control at 125 g/ha: 125 g ai/ha, postemergence, visual injury after approximately 10 d, 0 to 100 scale (0 no effect, 100 complete control)
Outline: as §1

[8] = test system: Galium (catchweed bedstraw, Galium aparine); experiment: Test A postemergence; details: Galium, post-emergence, 240 h, read-out: Plant response rating, Galium; for pest or weed control at 125 g/ha: 125 g ai/ha, postemergence, visual injury after approximately 10 d, 0 to 100 scale (0 no effect, 100 complete control)
Outline: as §1

[9] = test system: pigweed (Amaranthus retroflexus); experiment: Test A preemergence; details: Amaranthus retroflexus, pre-emergence, 240 h; for pest or weed control at 125 g/ha: 125 g ai/ha, preemergence, visual rating after approx. 10 d, 0 to 100 scale where 0 is no effect and 100 is complete control
[10] = test system: giant foxtail (Setaria faberii); experiment: Test A preemergence; details: Setaria faberi, pre-emergence, 240 h; for pest or weed control at 125 g/ha: 125 g ai/ha, preemergence, visual rating after approx. 10 d, 0 to 100 scale where 0 is no effect and 100 is complete control
Outline: as §1

Kochia (Kochia scoparia) [11] = experiment: Test A preemergence; details: Bassia scoparia, pre-emergence, 240 h; for pest or weed control at 125 g/ha: 125 g ai/ha, preemergence, visual rating after approx. 10 d, 0 to 100 scale where 0 is no effect and 100 is complete control
Outline: as §1

[12] = test system: ryegrass, Italian (Italian ryegrass, Lolium multiflorum); experiment: Test A preemergence; details: Lolium multiflorum, pre-emergence, 240 h; for pest or weed control at 125 g/ha: 125 g ai/ha, preemergence, visual rating after approx. 10 d, 0 to 100 scale where 0 is no effect and 100 is complete control
Outline: as §1

[13] = test system: ragweed (common ragweed, Ambrosia elatior); experiment: Test A preemergence; details: Ambrosia artemisiifolia, pre-emergence, 240 h; for pest or weed control at 125 g/ha: 125 g ai/ha, preemergence, visual rating after approx. 10 d, 0 to 100 scale where 0 is no effect and 100 is complete control
Outline: as §1

[14] = test system: barnyardgrass (Echinochloa crus-galli); experiment: Test A preemergence; details: Echinochloa crus-galli, pre-emergence, 240 h; for pest or weed control at 125 g/ha: 125 g ai/ha, preemergence, visual rating after approx. 10 d, 0 to 100 scale where 0 is no effect and 100 is complete control
Outline: as §1

[15] = read-out: Plant response rating, Pigweed
[16] = read-out: Plant response rating, Foxtail, Giant
[17] = read-out: Plant response rating, Kochia
[18] = read-out: Plant response rating, Ryegrass, Italian
[19] = read-out: Plant response rating, Ragweed
[20] = read-out: Plant response rating, Barnyardgrass
[21] = Postemergence, 31 g ai/ha, visual injury after approx. 10 d, 0 to 100 scale, 0 no effect, 100 complete control

SMILES	pest or weed control at 125 g/ha [1]	pest or weed control at 125 g/ha [2]	pest or weed control at 125 g/ha (Kochia (Kochia scoparia) [3])	Corn plant response rating (crop injury, 0 = no effect, 100 = complete kill) at 125 g/ha (corn (Zea mays))	pest or weed control at 125 g/ha [4]	pest or weed control at 125 g/ha [5]	pest or weed control at 125 g/ha [7]	pest or weed control at 125 g/ha [8]	pest or weed control at 125 g/ha [9, 15]	pest or weed control at 125 g/ha [10, 16]	pest or weed control at 125 g/ha (Kochia (Kochia scoparia) [11]; [17])	pest or weed control at 125 g/ha [12, 18]	pest or weed control at 125 g/ha [13, 19]	pest or weed control at 125 g/ha [14, 20]	also measured
CN1C[C@H](c2cccc([N+](=O)[O-])c2)[C@@H](C(=O)Nc2cccc(F)c2F)C1=O (racemic) [Compound 776]	0%	80%	20%	30%	20%	0%	80%	20%	30%	90%	50%	20%	30%	90%	plant injury at 125 g/ha ([6]; 125 g ai/ha, postemergence, visual injury after approximately 10 d, 0 to 100 scale (0 no effect, 100 complete control)): 30%; pest or weed control at 500 g/ha ([9]; 500 g ai/ha, Preemergence, visual injury vs untreated controls after approximately 10 d, read-out: Pigweed plant response rating (0 to 100 scale where 0 is no effect and 100 is complete control)): 60%; pest or weed control at 500 g/ha ([10]; 500 g ai/ha, Preemergence, visual injury vs untreated controls after approximately 10 d, read-out: Foxtail, Giant plant response rating (0 to 100 scale where 0 is no effect and 100 is complete control)): 100%; pest or weed control at 500 g/ha (Kochia (Kochia scoparia) [11]; 500 g ai/ha, Preemergence, visual injury vs untreated controls after approximately 10 d, read-out: Kochia plant response rating (0 to 100 scale where 0 is no effect and 100 is complete control)): 60%; pest or weed control at 500 g/ha ([12]; 500 g ai/ha, Preemergence, visual injury vs untreated controls after approximately 10 d, read-out: Ryegrass, Italian plant response rating (0 to 100 scale where 0 is no effect and 100 is complete control)): 50%; pest or weed control at 500 g/ha ([13]; 500 g ai/ha, Preemergence, visual injury vs untreated controls after approximately 10 d, read-out: Ragweed plant response rating (0 to 100 scale where 0 is no effect and 100 is complete control)): 80%; pest or weed control at 500 g/ha ([14]; 500 g ai/ha, Preemergence, visual injury vs untreated controls after approximately 10 d, read-out: Barnyardgrass plant response rating (0 to 100 scale where 0 is no effect and 100 is complete control)): 90%
C/C=C/C1CNC(=O)C1C(=O)Nc1cccc(F)c1F (centres unmarked) [Compound 793]	0%	0%	0%	0%	0%	0%	0%	0%	0%	0%	0%	0%	0%	0%	pest or weed control at 31 g/ha [1, 21]: 0%; pest or weed control at 31 g/ha [2, 21]: 0%; pest or weed control at 31 g/ha (Kochia (Kochia scoparia) [3]; [21]): 0%; Corn plant response rating (crop injury, 0 = no effect, 100 = complete kill) at 31 g/ha (corn (Zea mays); [21]): 0%; pest or weed control at 31 g/ha [4, 21]: 0%; pest or weed control at 31 g/ha [5, 21]: 0%; plant injury at 31 g/ha [6, 21]: 0%; pest or weed control at 31 g/ha [7, 21]: 0%; pest or weed control at 31 g/ha [8, 21]: 0%; pest or weed control at 31 g/ha ([9]; Preemergence, 31 g ai/ha, 0 to 100 scale (0 no effect, 100 complete control), read-out: Plant response rating, Pigweed): 0%; pest or weed control at 31 g/ha ([10]; Preemergence, 31 g ai/ha, 0 to 100 scale (0 no effect, 100 complete control), read-out: Plant response rating, Foxtail, Giant): 0%; pest or weed control at 31 g/ha (Kochia (Kochia scoparia) [11]; Preemergence, 31 g ai/ha, 0 to 100 scale (0 no effect, 100 complete control), read-out: Plant response rating, Kochia): 0%; pest or weed control at 31 g/ha ([12]; Preemergence, 31 g ai/ha, 0 to 100 scale (0 no effect, 100 complete control), read-out: Plant response rating, Ryegrass, Italian): 0%; pest or weed control at 31 g/ha ([13]; Preemergence, 31 g ai/ha, 0 to 100 scale (0 no effect, 100 complete control), read-out: Plant response rating, Ragweed): 0%; pest or weed control at 31 g/ha ([14]; Preemergence, 31 g ai/ha, 0 to 100 scale (0 no effect, 100 complete control), read-out: Plant response rating, Barnyardgrass): 0%
